Results: patent US9969796B2, “Peptides and binding partners therefor” (priority 2013, dated 2018)

System: Drosophila melanogaster
Assay: Drosophila melanogaster (fruit fly) injection model
Format: in vivo
Settings: 250 μg/ml; for flies recovering after 24 hours: 24 hours post-injection; for signs of paralysis in injected flies: cohort of 20 age-matched flies
Protocol: FIG. 17 is a graph showing the results of an experiment to show Drosophila killing by Ece1-III. The percentage of Drosophila death, 24 hours post-infection of 250 μg/ml His-tagged full length Ece1p, Ece1-II (peptide 2) (FIG. 2), and Ece1-III (peptide 3), into a cohort of 20 age-matched flies.
The applicants also determined the effect of administering full length His-tagged Ece1p and Ece1-III in a Drosophila melanogaster (fruit fly) model.

Compound: CC[C@H](C)[C@H](NC(=O)CNC(=O)[C@H](CCSC)NC(=O)[C@@H](NC(=O)[C@@H](NC(=O)CNC(=O)[C@@H](NC(=O)[C@@H](NC(=O)[C@@H](N)CO)[C@@H](C)CC)[C@@H](C)CC)[C@@H](C)CC)[C@@H](C)CC)C(=O)N[C@@H](CC(C)C)C(=O)NCC(=O)N[C@@H](CC(N)=O)C(=O)N[C@H](C(=O)N1CCC[C@H]1C(=O)N[C@@H](CCC(N)=O)C(=O)N[C@H](C(=O)N[C@H](C(=O)N[C@@H](CCC(N)=O)C(=O)N[C@H](C(=O)N[C@H](C(=O)N[C@@H](CCSC)C(=O)N[C@@H](CO)C(=O)N[C@H](C(=O)N[C@H](C(=O)N[C@@H](CCCCN)C(=O)N[C@@H](C)C(=O)N[C@@H](Cc1ccccc1)C(=O)N[C@@H](CCCCN)C(=O)NCC(=O)N[C@@H](CC(N)=O)C(=O)N[C@@H](CCCCN)C(=O)N[C@@H](CCCNC(=N)N)C(=O)O)C(C)C)[C@@H](C)CC)[C@@H](C)CC)[C@@H](C)CC)[C@@H](C)CC)C(C)C)[C@@H](C)CC [Ece1-III]
- flies recovering after 24 hours: 10%
- signs of paralysis in injected flies: displayed signs of paralysis

Compound: CC[C@H](C)[C@H](NC(=O)[C@H](C)NC(=O)[C@@H](NC(=O)[C@H](CC(N)=O)NC(=O)[C@H](Cc1ccccc1)NC(=O)[C@H](CCC(=O)O)NC(=O)[C@H](CCC(N)=O)NC(=O)[C@@H]1CCCN1C(=O)[C@H](C)NC(=O)[C@@H]1CCCN1C(=O)[C@@H](NC(=O)[C@@H](NC(=O)[C@@H]1CCCN1C(=O)[C@H](C)NC(=O)[C@H](CCC(N)=O)NC(=O)[C@H](CC(=O)O)NC(=O)[C@H](C)NC(=O)[C@@H]1CCCN1C(=O)[C@H](C)NC(=O)[C@H](C)NC(=O)[C@@H]1CCCN1C(=O)[C@H](C)NC(=O)[C@H](C)NC(=O)[C@@H]1CCCN1C(=O)[C@H](C)NC(=O)[C@@H](NC(=O)[C@@H](N)CC(=O)O)C(C)C)[C@@H](C)O)C(C)C)[C@@H](C)O)C(=O)N[C@H](C(=O)N[C@@H](CCCCN)C(=O)N[C@@H](CCCNC(=N)N)C(=O)O)[C@@H](C)O [Ece1-II]
- signs of paralysis in injected flies: no signs of paralysis

Compound: full length His-tagged Ece1p: His-tagged full length Ece1 protein of C. albicans
- flies recovering after 24 hours: 17.5%
- signs of paralysis in injected flies: displayed signs of paralysis
